Reference: patent US4824944A, “Antineoplastic enamine derivatives of daunorubicin and adriamycin” (Politechnika Gdanska, priority 1987, dated 1989)

Experiments:
cardiac muscle of rats [1] = details: i.p., three dosage levels (0.2, 10, 20 mg/kg), H+E, light and polarizing microscopes; cited from earlier work
cardiac muscle of rats [2] = assay: Examination of the cardiac muscle of rats after intraperitoneal administration (cardiotoxicity); type: in vivo; details: i.p., 0.2, 10 and 20 mg/kg, versus daunorubicin
Source text: Preparations from cardiac muscle tinted with H+E have been examined under light and polarizing microscopes.

murine leukemia P-388 = assay: Anticancer activity in mice with leukemia P-388, survival time (T/C); type: in vivo; details: for T/C (second value, in parentheses): not explained
Experimental: (§1) The following Table I sets forth the comparative results of the effectiveness of the parent antibiotic, daunorubicin, in the inhibition of the growth of the cancerous cells of murine leukemia P-388 in mice versus the anticancer activity of enamine derivatives of daunorubicin according to the present invention. ED50 denotes the concentration of the compound being tested leading to 50 percent inhibition of cancerous cell growth at 48 hours incubation time of the compound being tested. LD50 indicates the dosage of the tested compounds which cause death after 24 hours of one-half of the number of mice which have been intraperitonically administered the subject compound. T/C in percent represents the ratio of mean survival time of the group of treated mice versus the group of untreated mice.

[3] = Acute toxicity in mice after intraperitoneal administration (LD50, 24 hours); type: in vivo; details: mouse, in vivo, ip; mice, intraperitoneal, death of one-half after 24 hours
Experimental: as §1

mice = assay: as above; type: in vivo; details: daunorubicin versus the inventive derivatives
Experimental: as §1

Row | SMILES | subsegmentary contractions / disturbances in heart rhythm (cardiac muscle of rats [1]) | morphological and ultrastructural changes to muscular tissue (cardiac muscle of rats [2]) | T/C (murine leukemia P-388; Dose (mg/kg) 3 130) [%] | T/C (murine leukemia P-388; Dose (mg/kg) 6 250) [%] | T/C (murine leukemia P-388; Dose (mg/kg) 12 500) [%] | T/C (murine leukemia P-388; Dose (mg/kg) 25 000) [%] | T/C (second value, in parentheses) (murine leukemia P-388; Dose (mg/kg) 25 000) [%] | T/C (murine leukemia P-388; Dose (mg/kg) 50 000) [%] | T/C (second value, in parentheses) (murine leukemia P-388; Dose (mg/kg) 50 000) [%] | T/C (murine leukemia P-388; Dose (mg/kg) 100 000) [%] | T/C (murine leukemia P-388; Dose (mg/kg) 200 000) | LD50 at 24 h [3] [mg/kg] | dosage level of toxic effects (mice)
1 | CCOC(=O)C=C(C)N[C@H]1C[C@H](O[C@H]2C[C@](O)(C(C)=O)Cc3c(O)c4c(c(O)c32)C(=O)c2c(OC)cccc2C4=O)O[C@@H](C)[C@H]1O [N-(1-carboethoxy-propen-1-yl-2)-daunorubicin] | does not cause said disturbances, the cardiac muscle evidencing a regular and alternating system of isotropic and anizotropic fringes | considerably less morphological and ultrastructural changes to muscular tissue than does the initial daunorubicin | 94 | 103 | 103 | 115 | 119 | 132 | 128 | 144 | 102% | 500 | 
2 | COc1cccc2c1C(=O)c1c(O)c3c(c(O)c1C2=O)C[C@@](O)(C(C)=O)C[C@@H]3O[C@H]1C[C@H](NC(C)=CC(C)=O)[C@H](O)[C@H](C)O1 [N--(penten-2-on-4 yl-2)-daunorubicin, N-(penten-2-on-4-yl-2) daunorubicin] |  |  | 131 | 110 | 119 | 125 | 131 | 118 | 144 | 147 | toxic | 500 | 
3 | COc1cccc2c1C(=O)c1c(O)c3c(c(O)c1C2=O)C[C@@](O)(C(C)=O)C[C@@H]3O[C@H]1C[C@H](N)[C@H](O)[C@H](C)O1 [Daunorubicin, daunorubicin] | leads to the formation of numerous subsegmentary contractions causing, in effect, disturbances in heart rhythm |  | 108 | 112 | 112 | 127 |  | 102 |  |  |  | 135 | occur at a far lower dosage level as opposed to the inventive derivatives
